Source: the NIST ThermoML archive (doi:10.1016/j.jct.2011.01.008)

Experiments:
[1] = xn = mol fraction of the nth substance listed; conditions: 96 kPa, Liquid, Vibrating tube method
[2] = refractive index (Na D-line) (dimensionless); xn = mol fraction of the nth substance listed; conditions: 298.15 K, 96 kPa, Liquid, Standard Abbe refractometry

CCCCC=O [pentanal] + CCOS(=O)(=O)[O-].CCn1cc[n+](C)c1
[1]
Conditions | mass density [kg/m3]
288.15 K, x1 = 0.0792 | 1218.05
288.15 K, x1 = 0.101 | 1213.67
288.15 K, x1 = 0.3008 | 1168.57
288.15 K, x1 = 0.4074 | 1139.93
288.15 K, x1 = 0.6047 | 1073.97
288.15 K, x1 = 0.7012 | 1036.82
288.15 K, x1 = 0.897 | 935.22
288.15 K, x1 = 0.9513 | 896.87
288.15 K, x1 = 1 | 814.15
288.16 K, x1 = 0.2039 | 1191.69
288.16 K, x1 = 0.5048 | 1109.32
288.16 K, x1 = 0.8024 | 990.74
293.14 K, x1 = 0.0792 | 1215
293.14 K, x1 = 1 | 809.45
293.15 K, x1 = 0.101 | 1210.75
293.15 K, x1 = 0.2039 | 1188.69
293.15 K, x1 = 0.3008 | 1165.47
293.15 K, x1 = 0.4074 | 1136.9
293.15 K, x1 = 0.5048 | 1106.25
293.15 K, x1 = 0.6047 | 1070.53
293.15 K, x1 = 0.7012 | 1033.26
293.15 K, x1 = 0.8024 | 986.74
293.15 K, x1 = 0.897 | 931.08
293.15 K, x1 = 0.9513 | 892.5
298.14 K, x1 = 0.0792 | 1211.93
298.14 K, x1 = 0.101 | 1207.59
298.14 K, x1 = 0.2039 | 1185.49
298.14 K, x1 = 0.3008 | 1162.15
298.14 K, x1 = 0.4074 | 1133.5
298.14 K, x1 = 0.5048 | 1102.7
298.14 K, x1 = 0.6047 | 1066.69
298.14 K, x1 = 0.7012 | 1029.35
298.14 K, x1 = 0.8024 | 982.52
298.14 K, x1 = 0.897 | 926.62
298.14 K, x1 = 0.9513 | 887.82
298.14 K, x1 = 1 | 804.73
303.14 K, x1 = 0.101 | 1204.47
303.14 K, x1 = 0.2039 | 1182.28
303.14 K, x1 = 0.3008 | 1158.83
303.14 K, x1 = 0.4074 | 1130.07
303.14 K, x1 = 0.5048 | 1099.13
303.14 K, x1 = 0.6047 | 1062.78
303.14 K, x1 = 0.7012 | 1025.33
303.14 K, x1 = 0.8024 | 978.11
303.14 K, x1 = 0.897 | 921.84
303.14 K, x1 = 0.9513 | 882.85
303.15 K, x1 = 0.0792 | 1208.72
303.15 K, x1 = 1 | 799.97
308.14 K, x1 = 0.101 | 1201.4
308.14 K, x1 = 0.2039 | 1179.03
308.14 K, x1 = 0.4074 | 1126.55
308.14 K, x1 = 0.5048 | 1095.35
308.14 K, x1 = 0.6047 | 1058.77
308.14 K, x1 = 0.7012 | 1021.17
308.14 K, x1 = 0.897 | 916.87
308.14 K, x1 = 0.9513 | 877.74
308.15 K, x1 = 0.0792 | 1205.39
308.15 K, x1 = 0.3008 | 1155.36
308.15 K, x1 = 0.8024 | 973.48
308.15 K, x1 = 1 | 795.17
313.14 K, x1 = 0.0792 | 1201.93
313.14 K, x1 = 0.2039 | 1175.7
313.14 K, x1 = 0.4074 | 1122.78
313.14 K, x1 = 0.5048 | 1091.33
313.14 K, x1 = 0.6047 | 1054.63
313.14 K, x1 = 0.7012 | 1016.96
313.14 K, x1 = 0.897 | 911.86
313.14 K, x1 = 0.9513 | 872.76
313.14 K, x1 = 1 | 790.33
313.15 K, x1 = 0.101 | 1198.11
313.15 K, x1 = 0.3008 | 1151.83
313.15 K, x1 = 0.8024 | 966.65
318.14 K, x1 = 0.0792 | 1198.39
318.14 K, x1 = 0.2039 | 1172.28
318.14 K, x1 = 0.5048 | 1087.33
318.14 K, x1 = 0.6047 | 1050.4
318.14 K, x1 = 0.7012 | 1012.64
318.14 K, x1 = 0.8024 | 962.44
318.14 K, x1 = 0.897 | 906.82
318.14 K, x1 = 0.9513 | 867.68
318.14 K, x1 = 1 | 785.46
318.15 K, x1 = 0.101 | 1194.8
318.15 K, x1 = 0.3008 | 1148.23
318.15 K, x1 = 0.4074 | 1119.06
323.14 K, x1 = 0.0792 | 1195.73
323.14 K, x1 = 0.2039 | 1168.79
323.14 K, x1 = 0.5048 | 1083.27
323.14 K, x1 = 0.6047 | 1046.09
323.14 K, x1 = 0.8024 | 959.29
323.14 K, x1 = 0.9513 | 862.54
323.14 K, x1 = 1 | 780.55
323.15 K, x1 = 0.101 | 1191.43
323.15 K, x1 = 0.3008 | 1144.59
323.15 K, x1 = 0.4074 | 1115.15
323.15 K, x1 = 0.7012 | 1008.39
323.15 K, x1 = 0.897 | 901.88

[2]
Conditions | refractive index
x1 = 0.0792 | 1.4793
x1 = 0.101 | 1.4788
x1 = 0.2039 | 1.4759
x1 = 0.3008 | 1.4718
x1 = 0.4074 | 1.4672
x1 = 0.5048 | 1.4621
x1 = 0.6047 | 1.4554
x1 = 0.7012 | 1.4486
x1 = 0.8024 | 1.4403
x1 = 0.897 | 1.431
x1 = 0.9513 | 1.4231
x1 = 1 | 1.396

CCC=O [propanal] + CCOS(=O)(=O)[O-].CCn1cc[n+](C)c1
[1]
Conditions | mass density [kg/m3]
288.14 K, x1 = 0.1702 | 1215.95
288.14 K, x1 = 0.4184 | 1170.49
288.14 K, x1 = 1 | 807.26
288.15 K, x1 = 0.2146 | 1209
288.15 K, x1 = 0.3671 | 1182.78
288.15 K, x1 = 0.5246 | 1139.5
288.15 K, x1 = 0.616 | 1108.79
288.15 K, x1 = 0.7074 | 1069.7
288.15 K, x1 = 0.8104 | 1012.95
288.15 K, x1 = 0.9022 | 936.46
288.15 K, x1 = 0.9521 | 876.3
288.16 K, x1 = 0.077 | 1227.88
293.15 K, x1 = 0.077 | 1224.4
293.15 K, x1 = 0.1702 | 1212.43
293.15 K, x1 = 0.5246 | 1136.2
293.15 K, x1 = 0.616 | 1105.04
293.15 K, x1 = 0.7074 | 1066.43
293.15 K, x1 = 1 | 801.06
293.16 K, x1 = 0.2146 | 1205.39
293.16 K, x1 = 0.3671 | 1178.94
293.16 K, x1 = 0.4184 | 1166.66
293.16 K, x1 = 0.8104 | 1008.26
293.16 K, x1 = 0.9022 | 931.16
293.16 K, x1 = 0.9521 | 870.71
298.15 K, x1 = 0.1702 | 1208.92
298.15 K, x1 = 0.5246 | 1132.3
298.15 K, x1 = 0.616 | 1101.02
298.15 K, x1 = 1 | 794.85
298.16 K, x1 = 0.077 | 1220.94
298.16 K, x1 = 0.2146 | 1201.81
298.16 K, x1 = 0.3671 | 1175.21
298.16 K, x1 = 0.4184 | 1162.88
298.16 K, x1 = 0.7074 | 1062.18
298.16 K, x1 = 0.8104 | 1003.73
298.16 K, x1 = 0.9022 | 925.91
298.16 K, x1 = 0.9521 | 865.19
303.15 K, x1 = 0.077 | 1217.48
303.15 K, x1 = 0.5246 | 1128.46
303.15 K, x1 = 0.7074 | 1058.06
303.15 K, x1 = 1 | 788.72
303.16 K, x1 = 0.1702 | 1205.39
303.16 K, x1 = 0.2146 | 1198.24
303.16 K, x1 = 0.3671 | 1171.5
303.16 K, x1 = 0.4184 | 1159.08
303.16 K, x1 = 0.616 | 1097.06
303.16 K, x1 = 0.8104 | 999.38
303.16 K, x1 = 0.9022 | 920.77
303.16 K, x1 = 0.9521 | 859.8
308.15 K, x1 = 0.077 | 1214.04
308.15 K, x1 = 0.2146 | 1194.69
308.15 K, x1 = 0.3671 | 1167.83
308.15 K, x1 = 0.4184 | 1155.38
308.15 K, x1 = 0.8104 | 995.49
308.15 K, x1 = 0.9022 | 915.5
308.15 K, x1 = 0.9521 | 854.41
308.16 K, x1 = 0.1702 | 1201.91
308.16 K, x1 = 0.5246 | 1124.75
308.16 K, x1 = 0.616 | 1093.39
308.16 K, x1 = 0.7074 | 1054.45
308.16 K, x1 = 1 | 782.55
313.14 K, x1 = 0.1702 | 1198.61
313.14 K, x1 = 0.616 | 1089.32
313.14 K, x1 = 0.7074 | 1050.7
313.15 K, x1 = 0.077 | 1210.68
313.15 K, x1 = 0.3671 | 1164.21
313.15 K, x1 = 0.4184 | 1151.8
313.15 K, x1 = 0.5246 | 1121.2
313.15 K, x1 = 0.8104 | 990.4
313.15 K, x1 = 0.9022 | 910.11
313.15 K, x1 = 0.9521 | 848.67
313.15 K, x1 = 1 | 776.53
313.16 K, x1 = 0.2146 | 1191.34

[2]
Conditions | refractive index
x1 = 0.077 | 1.4789
x1 = 0.1702 | 1.4768
x1 = 0.2146 | 1.473
x1 = 0.3671 | 1.4641
x1 = 0.4184 | 1.4627
x1 = 0.5246 | 1.4532
x1 = 0.616 | 1.4467
x1 = 0.7074 | 1.4369
x1 = 0.8104 | 1.426
x1 = 0.9022 | 1.41
x1 = 0.9521 | 1.3854
x1 = 1 | 1.3648
